Here are results for two compounds from patent US10583131B2, “Methods of treating pancreatic cancer” (ChemoCentryx, Inc., priority 2016, dated 2020).

Data set [1] is described as follows: Pharmacokinetics in Sprague-Dawley rats (i.v. and oral). In kind it is in vivo. The conditions noted are these: for clearance / bioavailability / AUC: rat, plasma; for clearance: iv, 0.5 mg/kg; for bioavailability: po 2 mg/kg, iv 0.5 mg/kg; for AUC: po, 2 mg/kg. As to the method:
Compound Ib and PF-04136309 were dosed intravenously at 0.5 mg/kg and orally at 2 mg/kg, in aqueous hydroxypropyl methylcellulose. Blood samples were collected at predetermined time points after each dosing and the corresponding plasma concentrations of Compound Ib and PF-04136309 were analyzed using an LC-MS/MS method. Plasma concentration-time curves were constructed and the corresponding pharmacokinetic parameters were derived using non-compartmental analysis.
Blood (0.2 mL) was sampled through the jugular vein or cardiac puncture (for terminal point only) at pre-dose, 2, 5, 10, 15, and 30 min, 1, 2, 4, 6, and 8 hours post-dose for i.v. dosing and at pre-dose, 5, 15, and 30 min, 1, 1.5, 2, 4, 6, and 8 hours post-dose for oral dosing. Blood samples were collected into chilled polypropylene tubes containing sodium EDTA as the anticoagulant and plasma was collected through centrifugation (Eppendorf Centrifuge 5417R) at 10,000 rpm and 4° C. for 6 minutes and stored at −20° C. until analysis.
Plasma samples (50 μL) were extracted with 200 μL acetonitrile containing the internal standard on a linear shaker for 10 min and then centrifuged at 3700 g for 10 min at 4° C. (Allegra X-15R centrifuge, Beckman Coulter, Inc., Fullerton, Calif.). 100 μL of the resulting supernatant was transferred into a new plate and mixed with 100 μL 0.1% formic acid in water for LC-MS/MS analysis.
Calibration standard samples were prepared with blank Sprague-Dawley rat plasma, at 5000, 2500, 1000, 500, 100, 50, 20, 10, 4, 2 and 1 ng/mL of compound. Three levels of the standard stock solutions (1000, 100 and 10 ng/mL) were spiked separately into male Sprague-Dawley rat plasma and used as QC samples. Plasma standards and QC samples were treated identically and prepared in parallel with the plasma samples. Extracted samples were analyzed by LC-MS/MS.
Mass spectrometer acquisition and integration were performed with Applied Biosystems-Sciex Analyst software (version 1.4.2). The calibration curve was obtained through a quadratic regression and the calibration range was 2-5000 ng/mL.
Instrument: • API 3000 mass spectrometer (Applied Biosystems, Foster City, Calif.) • Agilent 1100 HPLC binary pump (Santa Clara, Calif.) • LEAP Technologies HTS Pal Autosampler (Carrboro, N.C.) • Thermo Scientific Cohesive Aria LX-2 duplexing system (Waltham, Mass.) Column: Zorbax Eclipse XDB Phenyl 2.1×50 mm (Agilent, Santa Clara, Calif.) Injection Volume: 10 μL Flow Rate: 0.60 mL/min
Ionization Mode: Electrospray (ESI). Detection Mode: Positive MRM. For each dosing route, descriptive pharmacokinetic parameters were determined by a standard non-compartmental analysis (Wagner, 1993) from the plasma concentration-time curve. Pharmacokinetic analysis was performed by using XLFit® v.4.3.1 (ID Business Solutions Inc., Alameda, Calif.) in conjunction with Microsoft Excel 2003.

The nature of data set [2]: Pharmacokinetics of compound Ib in male beagle dogs (i.v. and oral). In kind it is in vivo. Particulars: Dog. The protocol:
The pharmacokinetic profile of compound Ib was evaluated in male beagle dogs following intravenous (i.v.) and oral (p.o.) administration. A single dose of compound Ib was dosed intravenously at 0.5 mg/kg and orally at 2 mg/kg. Blood samples were collected at predetermined time points after each dosing and the corresponding plasma samples were analyzed using an LC-MS/MS method. Plasma concentration-time curves were constructed using the plasma concentrations and the corresponding pharmacokinetic parameters were derived by non-compartmental analysis.
Six animals weighing 11.5, 9.9, 9.9, 14.6, 11.1, and 9.8 kg, respectively, were used with Compound Ib dosed intravenously at 0.5 mg/kg (the first 3 animals) and orally at 2 mg/kg (the second 3 animals).
For i.v. dosing, a solution formulation of Compound Ib was prepared in 36.8% water/31.6% propylene glycol/31.6% N,N-dimethyl acetamide at 0.5 mg/mL and each animal received 1 mL/kg. For oral dosing at 2 mg/kg, a solution formulation was prepared in 1% hydroxypropyl methylcellulose at 0.5 mg/mL and each animal received 4 mL/kg.
For dosing, blood (˜1 mL) was drawn at pre-dose and at 5, 15, and 30 min, 1, 2, 4, 8, 12, and 24 hours post-dose. Blood was sampled from the foreleg vein via butterfly catheter and then placed into chilled polypropylene tubes containing K2EDTA as the anticoagulant and kept on ice until centrifugation. Plasma was collected through centrifugation and shipped on dry ice for sample analysis.
Plasma samples (50 μL) were extracted with 200 μL 0.1% formic acid/acetonitrile containing the internal standard on a linear shaker for 10 min and then centrifuged at 3700 g for 10 min at 4° C. (Allegra X-15R centrifuge, Beckman Coulter, Inc., Fullerton, Calif.). 100 μL of the resulting supernatant was transferred into a new plate and mixed with 100 μL 0.1% formic acid in water for LC-MS/MS analysis.
Calibration standard samples were prepared with blank dog plasma, at 5000, 2500, 1000, 500, 100, 50, 20, 10, 4, 2 and 1 ng/mL of Compound Ib. Three levels of the standard stock solutions (1000, 100 and 10 ng/mL) were spiked separately into male beagle dog plasma and used as QC samples. Plasma standards and QC samples were treated identically and prepared in parallel with the plasma samples.
Sample analysis was performed by LC-MS/MS (details shown below). Acquisition and peak integration were performed with the Applied Biosystems-Sciex Analyst software (version 1.4.2). Calibration curves were obtained through quadratic regression with a weighting of 1/x. The calibration range was 1-5000 ng/mL.
Instrument: • Applied Biosystems API 3000 mass spectrometer (Foster City, Calif.) • Agilent 1100 HPLC binary pump (Santa Clara, Calif.) • LEAP Technologies HTS Pal Autosampler (Carrboro, N.C.) • Thermo Scientific Cohesive Aria LX-2 duplexing system (Waltham, Mass.) Column: Zorbax Eclipse XDB Phenyl 2.1×50 mm (Agilent, Santa Clara, Calif.) Injection Volume: 10 μL Flow Rate: 0.60 mL/min
Ionization Mode: Turbo Ionspray ESI Detection Mode: Positive MRM For each dosing route, descriptive pharmacokinetic parameters were determined by a standard non-compartmental analysis (Wagner, 1993) from the plasma concentration-time curve. • CL: Total body clearance • AUC: area under the curve • F: Bioavailability.
Pharmacokinetic analysis was performed by using XLFit® v.4.3.1 (ID Business Solutions Inc., Alameda, Calif.) in conjunction with Microsoft Excel 2003.

Data set [3] concerns non-resectable pancreatic adenocarcinoma. Nature of the data set: Open-label Phase Ib clinical trial of compound Ib plus FOLFIRINOX, response by RECIST 1.1. Type of data set: in vivo, patients. Particulars: for Tumor control rate: 12 weeks of treatment, 150 mg twice daily plus FOLFIRINOX; for Progressive disease / Stable disease / Overall response rate: 12 weeks, plus FOLFIRINOX; for Overall response rate: RECIST 1.1, all partial responses. As to the method: Fifty-four patients age 18 years or older were enrolled on an open-label phase 1-b interventional study to evaluate the safety and efficacy of compound Ib in patients with pancreatic adenocarcinoma also receiving FOLFIRINOX chemotherapy. Dosing consisted of 150 mg tablets for oral administration once or twice daily given orally for at least 12 weeks.
Inclusion criteria included: • Histologically or cytologically confirmed non-resectable pancreatic adenocarcinoma with or without metastases • Eastern Cooperative Oncology Group (ECOG) performance status score ≤2 • Anticipated life expectancy a ≥12 weeks • Radiographically measurable disease acc. to RECIST 1.1 • Use of adequate contraception (as described in protocol) • Ability to provide written informed consent and comply with study requirements.
Exclusion criteria included: • Received other cancer treatment or investigational drug within 4 weeks prior to screening • Women who are pregnant or breastfeeding • Had major surgery within 4 weeks of first dose of study drug • Inadequate liver, renal or bone marrow function within 2 weeks of first dose • Serious concurrent illness, altered medical status or any uncontrolled medical condition • Any infection requiring antibiotic or anti-viral treatment within 4 weeks of screening • Known active HIV, HBV or HCV infection • Inability to swallow tablets • History or presence of any medical condition or disease which, in the opinion of the investigator, may place the subject at unacceptable risk for study participation. Initial 12 week overall response rate (ORR) results:
The open-label, multi-center, Phase Ib clinical trial was designed to evaluate the safety and efficacy of orally administered compound Ib plus FOLFIRINOX in 50 patients with non-resectable pancreatic cancer. Patients received 150 mg of compound Ib twice daily for 12 weeks. After 12 weeks, patients who achieved stable disease or better (as measured by Response Evaluation Criteria In Solid Tumors, or RECIST 1.1), were eligible to continue on study for at least an additional 12 weeks unless disease progression occured. Per protocol, the Eastern Cooperative Oncology Group (ECOG) performance status of patients in the trial was 0, 1 or 2.
Patients enrolled in the study had advanced non-resectable pancreatic cancer (78% of patients having metastatic disease), and an Eastern Cooperative Oncology Group (ECOG) Performance Status score of less than or equal to 2. In order to assess the initial treatment effect of compound Ib, the study provided for assessment of overall response rate (ORR) based on computerized tomography (CT) imaging following 12 weeks of treatment.
The pre-specified evaluable ORR population consists of all patients who have at least one post-baseline disease CT assessment. Response rate results at 12 weeks of treatment were as follows: […]

Setting [4] is: male, beagle, plasma, po, mean, N = 3, dosed at 2 mg/kg.
The mark [5] stands for this setting: ITT Patient Population (N = 50).
The mark [6] stands for this setting: Pre-Specified Evaluable Patient Population (N = 41).

Structures are written as SMILES.

As a reminder, the AUC is the area under the concentration-time curve, a measure of exposure. The low end stands for less exposure, the high end for more exposure. On to `Cc1cnc(C(=O)c2ccnc3[nH]ccc23)c(NS(=O)(=O)c2ccc(Cl)c(C(F)(F)F)c2)c1` [Compound Ib], for which, in data set [1], the “Clearance compared to PF-4136309” value is on record as “much lower”, the “Exposure (AUC) compared to PF-4136309” value is listed as “much higher”, the clearance came to 11.5 mL/min/kg and the bioavailability stood at 133%. The compound further displayed an AUC in data set [1] of 3910 ng·h/mL. Also, in data set [2] (at comparable doses), the “Clearance compared to PF-4136309” value was “much lower” and the “Exposure (AUC) compared to PF-4136309” value is listed as “much higher”. For the same compound, the clearance in data set [2] (male, beagle, plasma, iv, mean, N = 3, dosed at 0.5 mg/kg) is 0.7 mL/min/kg. In data set [2] (setting [4]), the area under the curve (AUC) was 67000 ng·h/mL and the bioavailability came out at 143%. In data set [3] (setting [5]), the Tumor control rate is given as 32/50 (64%), the Progressive disease is recorded as 9/50 (18%), the Stable disease is given as 17/50 (34%) and the Overall response rate is on record as 15/50 (30%). Also, the Tumor control rate in data set [3] (Pre-Specified Evaluable Patient Population (N = 41), includes stable disease, partial response and complete response) is 32/41 (78%). For the same compound, in data set [3] (setting [6]), the Progressive disease is given as 9/41 (22%), the Stable disease is 17/41 (41%) and the Overall response rate is reported as 15/41 (37%). The Tolerability result in data set [3] (advanced pancreatic cancer patients, combined with FOLFIRINOX) was “well tolerated”. In addition, the “Incidence and rate of adverse events” value in data set [3] (compound Ib combined with FOLFIRINOX, versus historical FOLFIRINOX alone) is “consistent with data reported historically for FOLFIRINOX alone”.
In the case of `O=C(NCC(=O)N1CC[C@H](N[C@H]2CC[C@@](O)(c3ccc(-c4ncccn4)cn3)CC2)C1)c1cccc(C(F)(F)F)c1` [PF-04136309, reference compound], in data set [1], the clearance worked out at 71.1 mL/min/kg, the bioavailability was 22% and the AUC worked out at 111 ng·h/mL.
